This passage reports EC50, AC50 and IC50 results from ChEMBL document CHEMBL1201862, “PubChem BioAssay data set” (2004).

Active and inactive are the calls of the source. A value given as a limit tells only on which side of the number the result lay.

Test [1] addresses Luciferin 4-monooxygenase (Photinus pyralis, UniProt P08659). Kind of test: In vitro luciferase assay using purified luciferase. [Related pubchem assays: 1299, 1270, 1295, 1375, 1287, 1281, 1293, 1291, 1289, 1280, 465, 1364, 1282, 1372, 1365, 1370, 1367, 1366, 1266, 1373, 1292, 1290, 1302, 1371, 1283, 1271, 1294, 1374, 1368, 1369 ].
In test [2] the test system is HEK293. As to the kind of experiment: PMA/Ionomycin induced NF-kB luciferase assay in 293- NF-kB-Luc stable cells. [Related pubchem assays: 1299, 1270, 1295, 1375, 1287, 1281, 1293, 1291, 1289, 1280, 465, 1364, 1282, 1372, 1365, 1370, 1367, 1366, 1269, 1373, 1292, 1290, 1302, 1371, 1283, 1271, 1294, 1374, 1368, 1369 ]. It counts as functional, cell-based. The settings on record: Homo sapiens.

For test [3], the system named is HEK293. Kind of test: Cytotoxicity assay in HEK293 cells. [Related pubchem assays (depositor defined):AID1266, AID1269, AID1270, AID1271, AID1280, AID1281, AID1282, AID1283, AID1287, AID1289, AID1290, AID1291, AID1292, AID1293, AID1294, AID1295, AID1299, AID1302, AID1364, AID1365, AID1366, AID1367, AID1369, AID1370, AID1371, AID1372, AID1373, AID1374, AID1375, AID1384 …. It is filed as functional, cell-based. The settings on record: Homo sapiens.

The target in test [4] is Voltage-dependent T-type calcium channel subunit alpha-1H (Homo sapiens, UniProt O95180). It is filed as functional.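 Note: channel activity triggered by adding a high calcium stimulation buffer.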
Chain of Voltage-dependent T-type calcium channel subunit alpha-1H (O95180 whole entry): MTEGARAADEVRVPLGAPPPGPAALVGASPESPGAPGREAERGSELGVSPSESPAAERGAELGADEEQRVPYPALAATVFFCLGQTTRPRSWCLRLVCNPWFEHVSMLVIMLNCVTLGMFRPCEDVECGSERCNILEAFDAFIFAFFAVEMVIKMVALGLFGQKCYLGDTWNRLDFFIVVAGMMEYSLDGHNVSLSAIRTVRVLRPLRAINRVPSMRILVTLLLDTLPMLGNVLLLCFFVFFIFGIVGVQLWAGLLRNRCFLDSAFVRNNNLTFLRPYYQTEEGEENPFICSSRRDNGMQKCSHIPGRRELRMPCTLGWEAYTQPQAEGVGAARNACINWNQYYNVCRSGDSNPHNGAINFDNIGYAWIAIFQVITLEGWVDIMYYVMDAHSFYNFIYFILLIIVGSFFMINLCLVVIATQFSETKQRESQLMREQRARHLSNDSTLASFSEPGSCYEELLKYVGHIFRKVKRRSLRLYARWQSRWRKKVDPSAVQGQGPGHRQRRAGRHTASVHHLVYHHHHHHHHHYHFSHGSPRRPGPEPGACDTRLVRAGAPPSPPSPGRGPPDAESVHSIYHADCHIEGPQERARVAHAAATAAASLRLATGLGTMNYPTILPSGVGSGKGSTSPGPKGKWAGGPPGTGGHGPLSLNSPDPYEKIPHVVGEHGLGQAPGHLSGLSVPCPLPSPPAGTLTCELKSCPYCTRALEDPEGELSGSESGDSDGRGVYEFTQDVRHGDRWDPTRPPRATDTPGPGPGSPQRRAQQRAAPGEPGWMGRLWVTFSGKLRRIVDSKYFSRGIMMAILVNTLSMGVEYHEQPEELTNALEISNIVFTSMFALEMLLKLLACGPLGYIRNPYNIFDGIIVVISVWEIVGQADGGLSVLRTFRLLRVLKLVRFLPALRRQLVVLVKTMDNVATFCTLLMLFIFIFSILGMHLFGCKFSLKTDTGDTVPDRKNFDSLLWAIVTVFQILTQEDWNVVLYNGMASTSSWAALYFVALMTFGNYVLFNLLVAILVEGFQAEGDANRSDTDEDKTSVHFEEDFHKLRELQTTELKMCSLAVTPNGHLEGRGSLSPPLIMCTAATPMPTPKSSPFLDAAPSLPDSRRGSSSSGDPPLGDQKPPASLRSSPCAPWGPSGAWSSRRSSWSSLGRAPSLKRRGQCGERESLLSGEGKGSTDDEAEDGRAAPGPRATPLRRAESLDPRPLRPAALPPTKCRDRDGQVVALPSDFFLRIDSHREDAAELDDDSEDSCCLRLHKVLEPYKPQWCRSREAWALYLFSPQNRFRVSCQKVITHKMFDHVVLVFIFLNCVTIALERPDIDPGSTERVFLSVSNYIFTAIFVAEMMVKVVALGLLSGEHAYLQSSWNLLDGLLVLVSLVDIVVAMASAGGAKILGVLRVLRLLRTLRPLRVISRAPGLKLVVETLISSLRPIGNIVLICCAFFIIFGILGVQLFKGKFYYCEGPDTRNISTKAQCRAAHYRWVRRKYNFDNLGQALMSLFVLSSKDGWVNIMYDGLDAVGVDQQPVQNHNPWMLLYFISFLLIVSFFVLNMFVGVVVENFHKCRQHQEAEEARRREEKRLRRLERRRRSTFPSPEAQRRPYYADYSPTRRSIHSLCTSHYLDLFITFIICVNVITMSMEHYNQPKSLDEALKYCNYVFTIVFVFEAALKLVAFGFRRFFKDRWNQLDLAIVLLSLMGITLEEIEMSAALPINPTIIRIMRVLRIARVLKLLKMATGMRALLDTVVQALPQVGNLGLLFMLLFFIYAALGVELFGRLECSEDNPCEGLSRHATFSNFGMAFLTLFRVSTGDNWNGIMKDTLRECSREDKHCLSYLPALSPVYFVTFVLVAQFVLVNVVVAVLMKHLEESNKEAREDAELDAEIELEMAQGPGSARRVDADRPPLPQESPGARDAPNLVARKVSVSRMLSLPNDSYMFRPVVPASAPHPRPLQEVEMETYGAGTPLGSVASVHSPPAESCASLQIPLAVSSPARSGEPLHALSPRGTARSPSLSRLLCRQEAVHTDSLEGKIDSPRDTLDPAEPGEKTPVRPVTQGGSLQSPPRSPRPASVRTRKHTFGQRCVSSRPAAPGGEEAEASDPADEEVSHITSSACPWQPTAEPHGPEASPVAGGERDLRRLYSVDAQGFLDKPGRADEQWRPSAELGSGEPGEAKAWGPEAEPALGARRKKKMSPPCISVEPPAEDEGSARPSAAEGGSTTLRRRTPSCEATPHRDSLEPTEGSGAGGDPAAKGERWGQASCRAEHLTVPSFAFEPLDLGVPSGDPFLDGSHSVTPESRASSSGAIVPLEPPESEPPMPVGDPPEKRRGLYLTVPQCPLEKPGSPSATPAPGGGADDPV
Test [5] deals with T1, ORF 73 (Human herpesvirus 8, UniProt O40947).
T1 sequence (O40947 whole entry): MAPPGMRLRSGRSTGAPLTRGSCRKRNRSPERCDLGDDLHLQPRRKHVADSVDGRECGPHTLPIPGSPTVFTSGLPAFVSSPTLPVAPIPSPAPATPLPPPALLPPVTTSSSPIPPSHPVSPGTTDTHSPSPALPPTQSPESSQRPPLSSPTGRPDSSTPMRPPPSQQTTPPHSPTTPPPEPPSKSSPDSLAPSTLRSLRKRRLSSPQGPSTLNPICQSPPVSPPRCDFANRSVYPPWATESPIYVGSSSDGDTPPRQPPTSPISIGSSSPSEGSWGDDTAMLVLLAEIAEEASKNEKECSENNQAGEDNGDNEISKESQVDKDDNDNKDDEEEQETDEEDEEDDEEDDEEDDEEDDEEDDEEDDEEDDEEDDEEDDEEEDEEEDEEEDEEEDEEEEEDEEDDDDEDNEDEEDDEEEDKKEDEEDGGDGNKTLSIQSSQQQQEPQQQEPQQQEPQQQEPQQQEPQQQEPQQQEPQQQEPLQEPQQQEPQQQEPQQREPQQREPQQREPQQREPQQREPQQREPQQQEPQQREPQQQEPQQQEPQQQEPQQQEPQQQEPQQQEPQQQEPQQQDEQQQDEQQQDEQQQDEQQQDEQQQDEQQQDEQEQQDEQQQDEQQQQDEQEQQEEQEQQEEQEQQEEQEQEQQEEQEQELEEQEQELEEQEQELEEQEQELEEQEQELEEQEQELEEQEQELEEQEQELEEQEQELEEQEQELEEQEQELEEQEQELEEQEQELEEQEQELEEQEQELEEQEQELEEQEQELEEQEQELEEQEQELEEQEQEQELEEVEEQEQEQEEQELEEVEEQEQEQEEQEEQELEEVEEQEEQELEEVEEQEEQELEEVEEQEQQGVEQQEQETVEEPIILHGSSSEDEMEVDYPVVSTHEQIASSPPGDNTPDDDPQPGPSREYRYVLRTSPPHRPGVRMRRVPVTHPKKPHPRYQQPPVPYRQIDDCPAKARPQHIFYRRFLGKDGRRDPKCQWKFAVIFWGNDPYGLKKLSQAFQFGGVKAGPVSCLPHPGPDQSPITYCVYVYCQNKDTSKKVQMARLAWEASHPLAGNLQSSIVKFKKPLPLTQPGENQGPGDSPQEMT
As to the kind of experiment: inhibitors of C-LANA binding to LBS DNA, dose response, biochemical, fluorescence polarization, cherry-picked samples (AID 504725).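 Note: fluorescence polarization of a labeled DNA duplex reporting LANA DNA binding; potency is for inhibitors that block LANA binding to the DNA.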 Further details: species or system Human gammaherpesvirus 8. In general terms: Polarisation of emitted light reports the rotation of a fluorescent probe.

For test [6], the system named is HeLa. As to the kind of experiment: HeLa cell cytotoxicity, dose response, cytotoxicity control, 24 h, cherry-picked samples (AID 504726).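 Note: potency for cytotoxicity as loss of luminescence signal.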 It is filed as functional, cell-based. The settings on record: Homo sapiens.
In test [7] the target is T2, Endoribonuclease toxin MazF (Escherichia coli K-12, UniProt P0AE70).
T2 sequence (P0AE70 whole entry): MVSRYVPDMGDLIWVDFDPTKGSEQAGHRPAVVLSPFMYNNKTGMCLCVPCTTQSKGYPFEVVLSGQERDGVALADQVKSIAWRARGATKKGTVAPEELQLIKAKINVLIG
As to the kind of experiment: MazF toxin RNase activators, dose response, biochemical, fluorescence, single-stranded RNA substrate, uHTS hits (AID 588481). It counts as functional.

Test [8] addresses T2, Endoribonuclease toxin MazF. Kind of test: fluorescent RNA oligo signal without MazF, dose response, counter-screen for MazEF activator project, biochemical, fluorescence, single-stranded RNase substrate (AID 588502). It counts as functional. On the technique in general: Counterscreens check selectivity or assay interference.
Test [9] deals with Salmon testes DNA. As to the kind of experiment: DNA intercalators displacing acridine orange, dose response, artefact control for KSHV LANA DNA-binding inhibitor project, biochemical, fluorescence polarization, cherry-picked samples, set 2 (AID 504727). On the set-up: species or system Salmonidae.
The target of test [10] is Cyclin-dependent kinase 5/CDK5 activator 1 (Homo sapiens, UniProt Q00535). As to the kind of experiment: CDK5/p35 kinase inhibitors, dose response, biochemical, cherry-picked samples, set 2 (AID 504545).
Chain of Cyclin-dependent kinase 5/CDK5 activator 1 (Q00535 whole entry): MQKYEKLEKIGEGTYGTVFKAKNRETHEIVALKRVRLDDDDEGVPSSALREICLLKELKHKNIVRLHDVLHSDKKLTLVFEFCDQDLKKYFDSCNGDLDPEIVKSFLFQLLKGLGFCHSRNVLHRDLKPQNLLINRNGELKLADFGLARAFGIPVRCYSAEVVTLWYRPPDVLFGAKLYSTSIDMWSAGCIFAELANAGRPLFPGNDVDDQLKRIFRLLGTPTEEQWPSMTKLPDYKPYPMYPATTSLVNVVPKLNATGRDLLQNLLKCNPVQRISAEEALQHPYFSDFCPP
Chain of Cyclin-dependent kinase 5/CDK5 activator 1 (Q15078 whole entry, further chain): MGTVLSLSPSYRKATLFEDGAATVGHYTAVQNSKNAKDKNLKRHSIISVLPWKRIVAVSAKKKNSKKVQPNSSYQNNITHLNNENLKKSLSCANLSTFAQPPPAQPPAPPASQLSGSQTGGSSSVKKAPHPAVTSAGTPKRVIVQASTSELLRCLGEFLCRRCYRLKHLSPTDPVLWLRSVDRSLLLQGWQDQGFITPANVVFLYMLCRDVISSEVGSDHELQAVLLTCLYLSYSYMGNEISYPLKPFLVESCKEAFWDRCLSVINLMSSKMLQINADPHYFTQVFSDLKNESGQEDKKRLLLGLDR
For test [11], the target named is Heat shock protein HSP 90-alpha (Homo sapiens, UniProt P07900). It is filed as functional, organism-based.
Test [12] addresses Dual specificity tyrosine-phosphorylation-regulated kinase 1A (Rattus norvegicus, UniProt Q63470). It counts as biochemical, Homo sapiens.
Test [13] has as its target G2/mitotic-specific cyclin-B1 (Homo sapiens, UniProt P14635). Kind of test: G2/M cell cycle arrest in HeLa, late-stage follow-up, mechanism study for Wee1 degradation inhibitor project, FACS, panel member Cyclin B Degradation (AID 2088).
For test [14], the target named is Wee1-like protein kinase (Homo sapiens, UniProt P30291). As to the kind of experiment: G2/M cell cycle arrest in HeLa, late-stage follow-up, mechanism study for Wee1 degradation inhibitor project, FACS, panel member Wee1 Degradation (AID 2088).
Chain of Wee1-like protein kinase (P30291 whole entry): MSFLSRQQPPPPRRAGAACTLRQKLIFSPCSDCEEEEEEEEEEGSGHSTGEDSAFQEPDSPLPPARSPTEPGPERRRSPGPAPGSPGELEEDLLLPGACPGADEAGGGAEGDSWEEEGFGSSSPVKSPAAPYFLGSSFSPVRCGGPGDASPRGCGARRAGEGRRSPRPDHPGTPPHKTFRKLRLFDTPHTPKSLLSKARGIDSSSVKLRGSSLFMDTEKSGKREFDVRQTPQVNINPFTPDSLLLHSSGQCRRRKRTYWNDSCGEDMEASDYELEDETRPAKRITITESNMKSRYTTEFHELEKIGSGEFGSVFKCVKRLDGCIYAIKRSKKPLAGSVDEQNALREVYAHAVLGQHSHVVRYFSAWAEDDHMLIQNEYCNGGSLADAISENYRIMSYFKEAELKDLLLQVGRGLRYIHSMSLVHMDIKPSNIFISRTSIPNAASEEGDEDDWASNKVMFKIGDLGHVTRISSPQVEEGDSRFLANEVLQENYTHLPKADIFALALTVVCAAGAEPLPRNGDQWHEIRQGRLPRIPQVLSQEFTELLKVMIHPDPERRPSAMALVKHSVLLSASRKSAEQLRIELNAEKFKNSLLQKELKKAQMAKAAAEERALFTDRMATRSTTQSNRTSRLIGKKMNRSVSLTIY
A short description of test [15]: PhoP regulon inhibitors in S. Typhimurium, SAR follow-up, synthesized compounds, round 3, GFP (AID 434996). It is filed as functional.

Chain of Luciferin 4-monooxygenase (P08659 whole entry): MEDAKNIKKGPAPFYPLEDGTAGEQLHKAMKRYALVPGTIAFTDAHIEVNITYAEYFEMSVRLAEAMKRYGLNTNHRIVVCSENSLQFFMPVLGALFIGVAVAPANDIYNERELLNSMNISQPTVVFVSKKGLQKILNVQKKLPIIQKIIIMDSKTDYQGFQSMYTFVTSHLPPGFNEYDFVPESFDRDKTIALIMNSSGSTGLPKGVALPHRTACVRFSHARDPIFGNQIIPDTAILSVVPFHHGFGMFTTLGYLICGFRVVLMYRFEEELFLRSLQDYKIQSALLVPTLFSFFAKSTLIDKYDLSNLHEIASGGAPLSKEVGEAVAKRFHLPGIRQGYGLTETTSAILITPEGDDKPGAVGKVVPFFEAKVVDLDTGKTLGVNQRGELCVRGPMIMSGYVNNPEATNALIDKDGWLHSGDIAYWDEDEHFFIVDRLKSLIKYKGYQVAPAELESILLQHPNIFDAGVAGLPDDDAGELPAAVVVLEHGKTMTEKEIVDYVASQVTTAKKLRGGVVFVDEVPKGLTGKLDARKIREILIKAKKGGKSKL
Chain of G2/mitotic-specific cyclin-B1 (P14635 whole entry): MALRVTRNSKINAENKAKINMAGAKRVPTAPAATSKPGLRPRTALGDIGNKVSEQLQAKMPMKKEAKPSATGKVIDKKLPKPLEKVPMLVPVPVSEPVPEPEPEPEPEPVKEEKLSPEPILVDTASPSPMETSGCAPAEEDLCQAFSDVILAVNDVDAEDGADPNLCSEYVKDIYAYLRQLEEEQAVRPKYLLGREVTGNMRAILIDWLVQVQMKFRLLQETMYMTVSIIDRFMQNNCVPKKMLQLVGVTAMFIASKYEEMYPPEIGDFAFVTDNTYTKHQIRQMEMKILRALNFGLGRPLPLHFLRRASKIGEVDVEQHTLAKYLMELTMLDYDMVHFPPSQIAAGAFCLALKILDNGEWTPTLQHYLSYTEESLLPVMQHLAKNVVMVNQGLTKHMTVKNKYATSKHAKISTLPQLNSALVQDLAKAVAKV

In the case of `Cc1csc(NC(=O)c2sc3nc(-c4cccs4)ccc3c2N)n1`, the EC50 (as a rule, the concentration at which the effect is half-maximal) in [1] is > 8 µM (not active); in test [2] it was 15.8 µM (not active); in [3], > 8 µM (inactive); in test [4], 6.54 µM (active).

Regarding `COc1ccc(-c2cc(C(F)(F)F)c3c(N)c(C(=O)NCCSC)sc3n2)cc1`, the half-maximal activity concentration (AC50) (as a rule, the concentration at which the activity in the assay is half-maximal) in test [5] is 34.5 µM (active); in [6], 45.9 µM (active); in test [9], 58.9 µM (active). Moreover, the EC50 in [7] was > 99 µM (inactive); in test [8], 61.6 µM (inactive).

Take `Nc1cc2c(cc1[N+](=O)[O-])-c1ccccc1C2=NO`: the AC50 was 41.2 µM (active) in [10], 8.8 µM (active) in test [11] and 0.143 µM (active) in [12].

For the molecule `CCc1cccc(NC(=O)CCCOc2cc(=O)n(C)c3ccccc23)c1`, the EC50 in [13] and in [14] was > 49.7 µM (inactive) throughout.

With `COc1ccccc1CNC(=S)Nc1ccncc1`, the IC50 (usually the concentration at which inhibition is half-maximal) in test [15] was > 150 µM (active).
